Experiments:
[1] = target: T1, ABCB1 transporter (Homo sapiens, UniProt P08183)
[2] = target: T1, ABCB1 transporter; experiment: ATPase stimulation assay (ABCB1 expressed in High Five insect cells); supported by [3H]-paclitaxel accumulation and efflux in SW620/Ad300 cells; type: biochemical
[3] = target: T2, ABCG2 transporter (Homo sapiens, UniProt Q9UNQ0); experiment: ATPase stimulation assay (ABCG2 expressed in High Five insect cells); supported by [3H]-mitoxantrone accumulation and efflux in S1-M1-80 cells; type: biochemical
T2 sequence (Q9UNQ0 1-655): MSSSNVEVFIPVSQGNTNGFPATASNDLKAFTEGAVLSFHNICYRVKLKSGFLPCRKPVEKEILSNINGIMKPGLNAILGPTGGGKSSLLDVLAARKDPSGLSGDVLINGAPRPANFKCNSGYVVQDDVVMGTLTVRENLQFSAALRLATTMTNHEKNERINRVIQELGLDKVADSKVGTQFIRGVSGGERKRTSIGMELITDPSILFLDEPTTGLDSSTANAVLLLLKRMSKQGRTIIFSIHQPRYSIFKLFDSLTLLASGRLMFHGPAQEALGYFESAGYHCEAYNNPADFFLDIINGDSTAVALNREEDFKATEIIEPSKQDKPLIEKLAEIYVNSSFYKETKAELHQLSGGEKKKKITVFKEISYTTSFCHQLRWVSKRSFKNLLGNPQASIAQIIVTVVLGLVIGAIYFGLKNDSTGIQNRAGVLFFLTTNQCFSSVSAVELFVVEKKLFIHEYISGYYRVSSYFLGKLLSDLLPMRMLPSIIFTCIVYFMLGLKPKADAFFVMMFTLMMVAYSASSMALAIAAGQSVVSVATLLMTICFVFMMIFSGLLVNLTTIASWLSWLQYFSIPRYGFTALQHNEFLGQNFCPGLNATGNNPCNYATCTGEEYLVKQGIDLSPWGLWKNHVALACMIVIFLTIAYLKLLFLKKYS

T1 sequence (P08183 whole entry): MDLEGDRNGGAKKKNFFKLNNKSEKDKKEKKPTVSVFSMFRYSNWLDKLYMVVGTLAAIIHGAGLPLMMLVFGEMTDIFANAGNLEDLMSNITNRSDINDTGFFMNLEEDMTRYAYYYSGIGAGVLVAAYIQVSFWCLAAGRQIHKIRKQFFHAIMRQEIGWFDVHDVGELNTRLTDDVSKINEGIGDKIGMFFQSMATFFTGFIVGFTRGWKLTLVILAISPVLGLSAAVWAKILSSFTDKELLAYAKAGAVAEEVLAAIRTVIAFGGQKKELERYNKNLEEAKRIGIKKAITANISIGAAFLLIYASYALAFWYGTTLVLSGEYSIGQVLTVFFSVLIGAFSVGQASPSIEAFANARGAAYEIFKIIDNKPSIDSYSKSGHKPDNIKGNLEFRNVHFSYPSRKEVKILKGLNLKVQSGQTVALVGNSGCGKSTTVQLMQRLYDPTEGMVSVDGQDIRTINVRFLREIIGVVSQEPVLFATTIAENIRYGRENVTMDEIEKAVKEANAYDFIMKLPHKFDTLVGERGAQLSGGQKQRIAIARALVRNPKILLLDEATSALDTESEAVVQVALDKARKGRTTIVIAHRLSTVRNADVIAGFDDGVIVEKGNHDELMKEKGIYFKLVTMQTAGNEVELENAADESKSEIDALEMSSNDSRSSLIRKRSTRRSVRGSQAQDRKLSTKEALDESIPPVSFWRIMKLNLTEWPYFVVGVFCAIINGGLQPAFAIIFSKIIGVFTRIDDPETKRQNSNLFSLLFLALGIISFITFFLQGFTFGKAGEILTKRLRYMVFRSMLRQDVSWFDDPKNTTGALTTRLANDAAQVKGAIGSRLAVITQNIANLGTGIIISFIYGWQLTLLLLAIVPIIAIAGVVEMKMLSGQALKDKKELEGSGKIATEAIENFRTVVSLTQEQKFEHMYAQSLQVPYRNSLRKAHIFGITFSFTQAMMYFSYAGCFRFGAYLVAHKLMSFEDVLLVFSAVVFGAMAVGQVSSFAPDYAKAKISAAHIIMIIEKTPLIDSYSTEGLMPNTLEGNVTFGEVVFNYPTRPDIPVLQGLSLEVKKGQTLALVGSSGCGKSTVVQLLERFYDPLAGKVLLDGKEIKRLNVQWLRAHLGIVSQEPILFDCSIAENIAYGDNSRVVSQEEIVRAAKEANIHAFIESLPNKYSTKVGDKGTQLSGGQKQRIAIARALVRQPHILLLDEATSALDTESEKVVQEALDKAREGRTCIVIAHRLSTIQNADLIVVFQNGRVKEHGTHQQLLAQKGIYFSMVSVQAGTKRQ

SMILES	radiolabelled substrate accumulation and efflux in SW620/Ad300 vs SW620 cells [1]	EC50 [2]	EC50 [3]
CC(=O)O[C@H]1C(=O)[C@@]2(C)[C@H]([C@H](OC(=O)c3ccccc3)[C@]3(O)C[C@H](OC(=O)[C@H](O)[C@@H](NC(=O)c4ccccc4)c4ccccc4)C(C)=C1C3(C)C)[C@]1(OC(C)=O)CO[C@@H]1C[C@@H]2O [paclitaxel]	overexpression of the ABCB1 transporter increases the efflux of the substrate, [^3H]-paclitaxel		
C=CC(=O)N1CCC(Oc2cc3c(Nc4ccc(Cl)c(Cl)c4F)ncnc3cc2OC)CC1 [poziotinib]		20 nM	210 nM
